Values of other authors, collected in the CATMoS acute toxicity set (Mansouri et al. 2021).

test: rat acute oral toxicity; conditions: in vivo

For `Cc1ccc2c(-c3ccccc3)nc(=O)n(C(C)C)c2c1`, which LD50 is on record?
The LD50 was 759 mg/kg.

Which LD50 does the source give for `NCCc1ccc(O)c(O)c1` here?
Its LD50 is 2860 mg/kg.

With `O=C(OCC=Cc1ccccc1)c1ccccc1` as the molecule, how does the LD50 read?
Its LD50 is 4000 mg/kg.

For `CC(C)(C)CC1(C)CO1` (configuration not stated), which LD50 is on record?
Its LD50 is 4920 mg/kg.

Which LD50 does the source give for `CC(COc1ccccc1)N(CCCl)Cc1ccccc1` (configuration not stated) here?
Its LD50 is 2500 mg/kg.

With `O=[N+]([O-])c1cccc2[nH]c(C(F)(F)F)nc12` as the molecule, how does the LD50 read?
The LD50 was 10.6 mg/kg.

With `CN(C)C(=O)C(CCN1CCC(O)(c2ccc(Cl)c(C(F)(F)F)c2)CC1)(c1ccccc1)c1ccccc1` as the molecule, how does the LD50 read?
The LD50 was 86 mg/kg.

For `CCOc1cc(C(C)(C)C)ccc1C1COC(c2c(F)cccc2F)=N1` (configuration not stated), which LD50 is on record?
Its LD50 is 4270 mg/kg.

With `CCCOc1c(Cl)c(Cl)c(Cl)c(Cl)c1Cl` as the molecule, how does the LD50 read?
Its LD50 is 430 mg/kg.

For `O=C(O)c1c(O)c(O)cc2ccccc12`, which LD50 is on record?
The LD50 was 24500 mg/kg.

With `CCOc1ccc(NC(=O)C(N=Nc2ccc(-c3ccc(N=NC(C(C)=O)C(=O)Nc4ccc(OCC)cc4)c(Cl)c3)cc2Cl)C(C)=O)cc1` (configuration not stated) as the molecule, how does the LD50 read?
The LD50 was 2230 mg/kg.

Which LD50 does the source give for `CCN(CC)CCCNC(=O)C(C)(C)Oc1ccc(Cl)cc1` here?
The LD50 was 150 mg/kg.

With `C=CC(C)(O)CCC=C(C)C` (configuration not stated) as the molecule, how does the LD50 read?
Its LD50 is 2790 mg/kg.

For `O=c1cc[nH]c(=O)o1`, which LD50 is on record?
Its LD50 is 850 mg/kg.

For `O=Cc1ccc(Cl)cc1`, which LD50 is on record?
The LD50 was 1580 mg/kg.

Which LD50 does the source give for `COc1cc(C(=O)N2CCCCCCC2)cc(OC)c1OC` here?
Its LD50 is 130 mg/kg.

For `Nc1ccncc1`, which LD50 is on record?
The LD50 was 32 mg/kg.

With `CCCCC(C)(C)O` as the molecule, how does the LD50 read?
The LD50 was 820 mg/kg.

For `Cn1c(=O)c2c(ncn2CCO)n(C)c1=O`, which LD50 is on record?
The LD50 was 710 mg/kg.

Which LD50 does the source give for `COP(=S)(OC)Oc1cc(C)c(Cl)cc1C(C)C` here?
The LD50 was 500 mg/kg.

For `C=C(CC(C)(C)c1ccccc1)c1ccccc1`, which LD50 is on record?
The LD50 was 300 mg/kg.

Which LD50 does the source give for `COc1ccc(C=CC(=O)OCCC(C)C)cc1` here?
The LD50 was 9600 mg/kg.

For `CC1=CCC2CC1(S)C2(C)C` (configuration not stated), which LD50 is on record?
The LD50 was 3000 mg/kg.

Which LD50 does the source give for `Cc1cccc(O)c1` here?
Its LD50 is 242 mg/kg.

Which LD50 does the source give for `Cn1cc(C(=O)[C@@H]2CCc3[nH]cnc3C2)c2ccccc21` here?
The LD50 was 1260 mg/kg.

With `C=CC(=O)OCCC#N` as the molecule, how does the LD50 read?
The LD50 was 180 mg/kg.

Which LD50 does the source give for `O=C(O)c1cc(Cl)ccc1O` here?
Its LD50 is 250 mg/kg.

With `CC(=O)c1ccc(O)cc1O` as the molecule, how does the LD50 read?
Its LD50 is 2830 mg/kg.

For `CC(C=O)c1ccccc1` (configuration not stated), which LD50 is on record?
Its LD50 is 2800 mg/kg.

Which LD50 does the source give for `Cc1ccc2c(c1)c1c3n2CCNC3CCC1` (configuration not stated) here?
The LD50 was 2060 mg/kg.

For `CCC1CC2CC3c4[nH]c5ccc(OC)cc5c4CCN(C2)C13` (configuration not stated), which LD50 is on record?
The LD50 was 482 mg/kg.

Which LD50 does the source give for `C=C(C)C(=O)OCCC[Si](OC)(OC)OC` here?
Its LD50 is 23500 mg/kg.

For `Cc1cccc(C)c1CCNC(N)=O`, which LD50 is on record?
Its LD50 is 1500 mg/kg.

For `NC(C(=O)O)c1ccccc1` (configuration not stated), which LD50 is on record?
The LD50 was 3030 mg/kg.

For `OCC(F)(F)C(F)(F)C(F)(F)CO`, which LD50 is on record?
The LD50 was 1780 mg/kg.

With `COc1cc(OC)c(C(=O)CCCN2CCCC2)c(OC)c1` as the molecule, how does the LD50 read?
The LD50 was 410 mg/kg.

Which LD50 does the source give for `OCCOCCOCCN1CCN(C(c2ccccc2)c2ccc(Cl)cc2)CC1` (configuration not stated) here?
Its LD50 is 920 mg/kg.

With `Cc1ncc(C[n+]2csc(CCO)c2C)c(N)n1` as the molecule, how does the LD50 read?
Its LD50 is 3710 mg/kg.

For `O=c1[nH]c2ccc(Cl)cc2o1`, which LD50 is on record?
The LD50 was 1200 mg/kg.

With `CCCCCCCCCCCCN(C)C` as the molecule, how does the LD50 read?
Its LD50 is 800 mg/kg.

For `CCc1cccc2c3c([nH]c12)C(CC)(CC(=O)O)OCC3` (configuration not stated), which LD50 is on record?
The LD50 was 94 mg/kg.

For `Brc1cc2c(cc1Br)Oc1cc(Br)c(Br)cc1O2`, which LD50 is on record?
Its LD50 is 0.1 mg/kg.

For `CCCCOC(=O)Cc1ccc(N(CCCl)CCCl)cc1`, which LD50 is on record?
The LD50 was 20 mg/kg.

Which LD50 does the source give for `CC(C)CCCCCCCCCCOCCCN` here?
The LD50 was 300 mg/kg.

For `CNNCc1ccc(C(=O)NC(C)C)cc1`, which LD50 is on record?
The LD50 was 570 mg/kg.

Which LD50 does the source give for `Cc1cc(N(C)C)nc(Cl)n1` here?
The LD50 was 1.25 mg/kg.

Which LD50 does the source give for `CCCCCCCC/C=C\CCCCCCCC(=O)NCCS(=O)(=O)O` here?
The LD50 was 4000 mg/kg.

With `O=C(O)C(S)C(S)C(=O)O` (configuration not stated) as the molecule, how does the LD50 read?
The LD50 was 4000 mg/kg.

For `CCCCOCCCOC(=O)COc1ccc(Cl)cc1Cl`, which LD50 is on record?
The LD50 was 500 mg/kg.

For `CC(c1ccccc1)N(C)N=O` (configuration not stated), which LD50 is on record?
Its LD50 is 600 mg/kg.

With `CCc1c(C)nc2c(C)cccn2c1=O` as the molecule, how does the LD50 read?
Its LD50 is 820 mg/kg.

For `CC(=O)OCCC(C)CC(C)(C)C` (configuration not stated), which LD50 is on record?
The LD50 was 4250 mg/kg.

Which LD50 does the source give for `ClCc1cc(Cl)cc(Cl)c1` here?
Its LD50 is 1080 mg/kg.

For `CCOP(=O)(OCC)SCCC(F)=C(F)F`, which LD50 is on record?
The LD50 was 68 mg/kg.

With `NNS(=O)(=O)c1ccc(Oc2ccc(S(=O)(=O)NN)cc2)cc1` as the molecule, how does the LD50 read?
Its LD50 is 2300 mg/kg.

Which LD50 does the source give for `NCC(O)c1ccc(O)c(O)c1` (configuration not stated) here?
Its LD50 is 132 mg/kg.

With `OCCOCCN(CCOCCO)CCN(CCOCCO)CCOCCO` as the molecule, how does the LD50 read?
The LD50 was 9900 mg/kg.

Which LD50 does the source give for `CC(=O)OCC(COC(C)=O)OC(C)=O` here?
The LD50 was 3000 mg/kg.

For `CCOc1ccc(NC(=O)CC(C)O)cc1` (configuration not stated), which LD50 is on record?
Its LD50 is 7000 mg/kg.

With `Cc1cc(=O)nc(SCc2ccccc2N(C)C)[nH]1` as the molecule, how does the LD50 read?
The LD50 was 2400 mg/kg.

For `CS(=O)C(C)(C)C(=O)O` (configuration not stated), which LD50 is on record?
Its LD50 is 7500 mg/kg.

With `Cc1ccc(S(=O)(=O)N=C=O)cc1` as the molecule, how does the LD50 read?
The LD50 was 2230 mg/kg.
